[PEt] = P-ethoxy (ethyl phosphotriester) internucleoside linkage
Experiment: Adverse events in study 2003-0578 (NCI CTCAE grading)
Conditions: all treatment groups
Excerpt: Each participant who receives study drug will be closely monitored for AEs. An AE is any untoward medical occurrence associated with the use of a drug in humans, whether or not considered drug related. Adverse events include any signs, symptoms, illnesses, or diagnoses that appear or worsen during the course of the study. An AE may be an intercurrent illness, an injury, or any concomitant impairment of the participant's health. All AEs occurring at any time from the time of consent through the end of treatment visit will be reported regardless of the etiology of the event. The NCI's CTCAE v4.03 will be used for grading AEs.
The causal relationship to BP1001 IP or Das for all AEs will be assessed as follows: (1) definitely related—AEs clearly attributable to study regimen administration; (2) probably related—AEs for which there is a reasonable possibility of causal association to study regimen; (3) possibly related—AEs for which there is confounding by comorbidities, medications or other considerations but for which it is not unreasonable that the AE may have been caused by study regimen; or (4) not related—AEs that are considered clearly not causally related to study regimen, or for which there is a clear alternative explanation

Q: For “BP1001: liposome-incorporated P-ethoxy antisense oligodeoxynucleotide (5′-ATATTTGGCGATGGCTTC-3′, SEQ ID NO: 1) specific to grb2 mRNA, in neutral DOPC liposomes (DNA, all [PEt], methylation of C not given here; incorporated in neutral DOPC liposomes)”, which “AML progression, number of patients” value (AML at enrollment (n = 30)) is on record?
A: 19

Q: And the “Abdominal Pain ≥Grade 3, number of patients” value (AML at enrollment (n = 30))?
A: 1

Q: What about the “Acidosis ≥Grade 3, number of patients” value (AML at enrollment (n = 30)) of the same substance?
A: 3

Q: And the “Acute kidney injury ≥Grade 3, number of patients” value (AML at enrollment (n = 30))?
A: 3

Q: What about the “Asthenia ≥Grade 3, number of patients” value (AML at enrollment (n = 30)) of the same substance?
A: 1

Q: And the “Back Pain ≥Grade 3, number of patients” value (AML at enrollment (n = 30))?
A: 1

Q: What about the “Blood and lymphatic system disorders ≥Grade 3, number of patients” value (AML at enrollment (n = 30)) of the same substance?
A: 10

Q: And the “Cardiac disorders ≥Grade 3, number of patients” value (AML at enrollment (n = 30))?
A: 1

Q: What about the “Cataract ≥Grade 3, number of patients” value (AML at enrollment (n = 30)) of the same substance?
A: 1

Q: What about the “Dyspnea ≥Grade 3, number of patients” value (AML at enrollment (n = 30)) of the same substance?
A: 3

Q: And the “Extremity Lower Edema ≥Grade 3, number of patients” value (AML at enrollment (n = 30))?
A: 1

Q: What about the “Eye disorders ≥Grade 3, number of patients” value (AML at enrollment (n = 30)) of the same substance?
A: 1

Q: And the “Febrile neutropenia ≥Grade 3, number of patients” value (AML at enrollment (n = 30))?
A: 3

Q: And the “Gastrointestinal disorders ≥Grade 3, number of patients” value (AML at enrollment (n = 30))?
A: 1

Q: What about the “General disorders and administration site conditions ≥Grade 3, number of patients” value (AML at enrollment (n = 30)) of the same substance?
A: 4

Q: What about the “Hallucinations ≥Grade 3, number of patients” value (AML at enrollment (n = 30)) of the same substance?
A: 1

Q: What about the “Heart failure ≥Grade 3, number of patients” value (AML at enrollment (n = 30)) of the same substance?
A: 1

Q: What about the “Hepatic failure ≥Grade 3, number of patients” value (AML at enrollment (n = 30)) of the same substance?
A: 2

Q: And the “Hepatobiliary disorders ≥Grade 3, number of patients” value (AML at enrollment (n = 30))?
A: 2

Q: What about the “Hypocalcemia ≥Grade 3, number of patients” value (AML at enrollment (n = 30)) of the same substance?
A: 1

Q: And the “Hypoglycemia ≥Grade 3, number of patients” value (AML at enrollment (n = 30))?
A: 1

Q: What about the “Hypokalemia ≥Grade 3, number of patients” value (AML at enrollment (n = 30)) of the same substance?
A: 3

Q: And the “Hyponatremia ≥Grade 3, number of patients” value (AML at enrollment (n = 30))?
A: 1

Q: What about the “Hypotension ≥Grade 3, number of patients” value (AML at enrollment (n = 30)) of the same substance?
A: 3

Q: And the “Hypovolemia ≥Grade 3, number of patients” value (AML at enrollment (n = 30))?
A: 1

Q: And the “Hypoxia ≥Grade 3, number of patients” value (AML at enrollment (n = 30))?
A: 4

Q: What about the “Investigations ≥Grade 3, number of patients” value (AML at enrollment (n = 30)) of the same substance?
A: 2

Q: What about the “Leukocytosis ≥Grade 3, number of patients” value (AML at enrollment (n = 30)) of the same substance?
A: 6

Q: What about the “Metabolism and nutritional disorders ≥Grade 3, number of patients” value (AML at enrollment (n = 30)) of the same substance?
A: 8

Q: And the “Multi-organ failure ≥Grade 3, number of patients” value (AML at enrollment (n = 30))?
A: 2

Q: What about the “Musculoskeletal and connective tissue disorders ≥Grade 3, number of patients” value (AML at enrollment (n = 30)) of the same substance?
A: 1

Q: And the “Neoplasms benign, malignant, and unspecified (incl. cysts and polyps) ≥Grade 3, number of patients” value (AML at enrollment (n = 30))?
A: 2

Q: What about the “Patients with AEs ≥Grade 3, number of patients” value (AML at enrollment (n = 30)) of the same substance?
A: 23

Q: What about the “Penile Pain ≥Grade 3, number of patients” value (AML at enrollment (n = 30)) of the same substance?
A: 1

Q: What about the “Platelet count decreased ≥Grade 3, number of patients” value (AML at enrollment (n = 30)) of the same substance?
A: 2

Q: And the “Pleural Effusions ≥Grade 3, number of patients” value (AML at enrollment (n = 30))?
A: 1

Q: What about the “Pneumonia ≥Grade 3, number of patients” value (AML at enrollment (n = 30)) of the same substance?
A: 4

Q: What about the “Psychiatric disorders ≥Grade 3, number of patients” value (AML at enrollment (n = 30)) of the same substance?
A: 1

Q: What about the “Renal and urinary disorders ≥Grade 3, number of patients” value (AML at enrollment (n = 30)) of the same substance?
A: 3

Q: What about the “Reproductive system and breast disorders ≥Grade 3, number of patients” value (AML at enrollment (n = 30)) of the same substance?
A: 1

Q: And the “Respiratory distress ≥Grade 3, number of patients” value (AML at enrollment (n = 30))?
A: 2

Q: What about the “Respiratory failure ≥Grade 3, number of patients” value (AML at enrollment (n = 30)) of the same substance?
A: 3

Q: And the “Respiratory, thoracic, and mediastinal disorders ≥Grade 3, number of patients” value (AML at enrollment (n = 30))?
A: 10

Q: What about the “Tumor lysis syndrome ≥Grade 3, number of patients” value (AML at enrollment (n = 30)) of the same substance?
A: 1

Q: What about the “Vascular disorders ≥Grade 3, number of patients” value (AML at enrollment (n = 30)) of the same substance?
A: 3

Q: And the “AML progression, number of patients” value (CML at enrollment (n = 5))?
A: 5

Q: What about the “Abdominal Pain ≥Grade 3, number of patients” value (CML at enrollment (n = 5)) of the same substance?
A: 0

Q: What about the “Acidosis ≥Grade 3, number of patients” value (CML at enrollment (n = 5)) of the same substance?
A: 0

Q: And the “Acute kidney injury ≥Grade 3, number of patients” value (CML at enrollment (n = 5))?
A: 1

Q: What about the “Asthenia ≥Grade 3, number of patients” value (CML at enrollment (n = 5)) of the same substance?
A: 1

Q: And the “Back Pain ≥Grade 3, number of patients” value (CML at enrollment (n = 5))?
A: 0

Q: What about the “Blood and lymphatic system disorders ≥Grade 3, number of patients” value (CML at enrollment (n = 5)) of the same substance?
A: 2

Q: What about the “Cardiac disorders ≥Grade 3, number of patients” value (CML at enrollment (n = 5)) of the same substance?
A: 1

Q: What about the “Cataract ≥Grade 3, number of patients” value (CML at enrollment (n = 5)) of the same substance?
A: 0

Q: What about the “Dyspnea ≥Grade 3, number of patients” value (CML at enrollment (n = 5)) of the same substance?
A: 0

Q: And the “Extremity Lower Edema ≥Grade 3, number of patients” value (CML at enrollment (n = 5))?
A: 0

Q: What about the “Eye disorders ≥Grade 3, number of patients” value (CML at enrollment (n = 5)) of the same substance?
A: 0

Q: What about the “Febrile neutropenia ≥Grade 3, number of patients” value (CML at enrollment (n = 5)) of the same substance?
A: 0

Q: And the “Gastrointestinal disorders ≥Grade 3, number of patients” value (CML at enrollment (n = 5))?
A: 0

Q: And the “General disorders and administration site conditions ≥Grade 3, number of patients” value (CML at enrollment (n = 5))?
A: 2

Q: And the “Hallucinations ≥Grade 3, number of patients” value (CML at enrollment (n = 5))?
A: 0

Q: And the “Heart failure ≥Grade 3, number of patients” value (CML at enrollment (n = 5))?
A: 1

Q: What about the “Hepatic failure ≥Grade 3, number of patients” value (CML at enrollment (n = 5)) of the same substance?
A: 0

Q: What about the “Hepatobiliary disorders ≥Grade 3, number of patients” value (CML at enrollment (n = 5)) of the same substance?
A: 0

Q: What about the “Hypocalcemia ≥Grade 3, number of patients” value (CML at enrollment (n = 5)) of the same substance?
A: 1

Q: And the “Hypoglycemia ≥Grade 3, number of patients” value (CML at enrollment (n = 5))?
A: 1

Q: What about the “Hypokalemia ≥Grade 3, number of patients” value (CML at enrollment (n = 5)) of the same substance?
A: 1

Q: What about the “Hyponatremia ≥Grade 3, number of patients” value (CML at enrollment (n = 5)) of the same substance?
A: 1

Q: What about the “Hypotension ≥Grade 3, number of patients” value (CML at enrollment (n = 5)) of the same substance?
A: 0

Q: And the “Hypovolemia ≥Grade 3, number of patients” value (CML at enrollment (n = 5))?
A: 0

Q: And the “Hypoxia ≥Grade 3, number of patients” value (CML at enrollment (n = 5))?
A: 0

Q: And the “Investigations ≥Grade 3, number of patients” value (CML at enrollment (n = 5))?
A: 0

Q: And the “Leukocytosis ≥Grade 3, number of patients” value (CML at enrollment (n = 5))?
A: 2

Q: And the “Metabolism and nutritional disorders ≥Grade 3, number of patients” value (CML at enrollment (n = 5))?
A: 4

Q: What about the “Multi-organ failure ≥Grade 3, number of patients” value (CML at enrollment (n = 5)) of the same substance?
A: 1

Q: What about the “Musculoskeletal and connective tissue disorders ≥Grade 3, number of patients” value (CML at enrollment (n = 5)) of the same substance?
A: 0

Q: What about the “Neoplasms benign, malignant, and unspecified (incl. cysts and polyps) ≥Grade 3, number of patients” value (CML at enrollment (n = 5)) of the same substance?
A: 0

Q: What about the “Patients with AEs ≥Grade 3, number of patients” value (CML at enrollment (n = 5)) of the same substance?
A: 4

Q: And the “Penile Pain ≥Grade 3, number of patients” value (CML at enrollment (n = 5))?
A: 0

Q: And the “Platelet count decreased ≥Grade 3, number of patients” value (CML at enrollment (n = 5))?
A: 0

Q: What about the “Pleural Effusions ≥Grade 3, number of patients” value (CML at enrollment (n = 5)) of the same substance?
A: 0

Q: What about the “Pneumonia ≥Grade 3, number of patients” value (CML at enrollment (n = 5)) of the same substance?
A: 0

Q: What about the “Psychiatric disorders ≥Grade 3, number of patients” value (CML at enrollment (n = 5)) of the same substance?
A: 0

Q: What about the “Renal and urinary disorders ≥Grade 3, number of patients” value (CML at enrollment (n = 5)) of the same substance?
A: 1

Q: And the “Reproductive system and breast disorders ≥Grade 3, number of patients” value (CML at enrollment (n = 5))?
A: 0

Q: And the “Respiratory distress ≥Grade 3, number of patients” value (CML at enrollment (n = 5))?
A: 1

Q: What about the “Respiratory failure ≥Grade 3, number of patients” value (CML at enrollment (n = 5)) of the same substance?
A: 0

Q: And the “Respiratory, thoracic, and mediastinal disorders ≥Grade 3, number of patients” value (CML at enrollment (n = 5))?
A: 1

Q: What about the “Tumor lysis syndrome ≥Grade 3, number of patients” value (CML at enrollment (n = 5)) of the same substance?
A: 2

Q: What about the “Vascular disorders ≥Grade 3, number of patients” value (CML at enrollment (n = 5)) of the same substance?
A: 0

Q: And the “AML progression, number of patients” value (MDS at enrollment (n = 4))?
A: 2

Q: And the “Abdominal Pain ≥Grade 3, number of patients” value (MDS at enrollment (n = 4))?
A: 0

Q: What about the “Acidosis ≥Grade 3, number of patients” value (MDS at enrollment (n = 4)) of the same substance?
A: 0

Q: What about the “Acute kidney injury ≥Grade 3, number of patients” value (MDS at enrollment (n = 4)) of the same substance?
A: 0

Q: And the “Asthenia ≥Grade 3, number of patients” value (MDS at enrollment (n = 4))?
A: 0

Q: And the “Back Pain ≥Grade 3, number of patients” value (MDS at enrollment (n = 4))?
A: 0

Q: What about the “Blood and lymphatic system disorders ≥Grade 3, number of patients” value (MDS at enrollment (n = 4)) of the same substance?
A: 0

Q: What about the “Cardiac disorders ≥Grade 3, number of patients” value (MDS at enrollment (n = 4)) of the same substance?
A: 1

Q: And the “Cataract ≥Grade 3, number of patients” value (MDS at enrollment (n = 4))?
A: 0

Q: And the “Dyspnea ≥Grade 3, number of patients” value (MDS at enrollment (n = 4))?
A: 0

Q: What about the “Extremity Lower Edema ≥Grade 3, number of patients” value (MDS at enrollment (n = 4)) of the same substance?
A: 0

Q: What about the “Eye disorders ≥Grade 3, number of patients” value (MDS at enrollment (n = 4)) of the same substance?
A: 0

Q: What about the “Febrile neutropenia ≥Grade 3, number of patients” value (MDS at enrollment (n = 4)) of the same substance?
A: 0

Q: What about the “Gastrointestinal disorders ≥Grade 3, number of patients” value (MDS at enrollment (n = 4)) of the same substance?
A: 0

Q: And the “General disorders and administration site conditions ≥Grade 3, number of patients” value (MDS at enrollment (n = 4))?
A: 0

Q: What about the “Hallucinations ≥Grade 3, number of patients” value (MDS at enrollment (n = 4)) of the same substance?
A: 0

Q: What about the “Heart failure ≥Grade 3, number of patients” value (MDS at enrollment (n = 4)) of the same substance?
A: 1

Q: What about the “Hepatic failure ≥Grade 3, number of patients” value (MDS at enrollment (n = 4)) of the same substance?
A: 0

Q: What about the “Hepatobiliary disorders ≥Grade 3, number of patients” value (MDS at enrollment (n = 4)) of the same substance?
A: 0

Q: What about the “Hypocalcemia ≥Grade 3, number of patients” value (MDS at enrollment (n = 4)) of the same substance?
A: 0

Q: And the “Hypoglycemia ≥Grade 3, number of patients” value (MDS at enrollment (n = 4))?
A: 0

Q: And the “Hypokalemia ≥Grade 3, number of patients” value (MDS at enrollment (n = 4))?
A: 0
